One data set deals with T1, GC receptor (Homo sapiens, UniProt P47871).
T1 construct: expressed in transfected cells; host or cells: HEK293 cells
The experiment in a line: GC receptor mediated cAMP production in vitro (HEK293 cells transfected with GC receptor). The data set is classed as cell-based. The following applies: 20 min at 37° C., read-out: GCGR (nM EC50). The text has this:
The medium was removed, the cells were lysed, and cAMP values were detected referring to the detection method described for the assay kit.

The next data set can be described thus: physchem. In kind it is physicochemical. The following applies: pH 7.5, Solubility.

Numbered stars: 1 amine (or outer) side, 2 acyl side, 3 side chain; on linkers, the order of the positions; unused ones are H or OH. Square brackets hold non-standard residues; d marks the D form. Side chains are listed from the residue outwards. Peptide text beside a SMILES is read from it. * marks the point of attachment. C18 diacid = O=C(O)CCCCCCCCCCCCCCCCC(=O)*; γGlu = O=C(O)[C@H](CCC(=O)[*:2])N[*:1]; AEEA = NCCOCCOCC(=O)O; Aib = CC(C)(N)C(=O)O
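For Solubility in this document: compound added at 2 mg per mL of phosphate buffer, with the dissolved amount determined in the supernatant.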

T1 sequence (P47871 26-477): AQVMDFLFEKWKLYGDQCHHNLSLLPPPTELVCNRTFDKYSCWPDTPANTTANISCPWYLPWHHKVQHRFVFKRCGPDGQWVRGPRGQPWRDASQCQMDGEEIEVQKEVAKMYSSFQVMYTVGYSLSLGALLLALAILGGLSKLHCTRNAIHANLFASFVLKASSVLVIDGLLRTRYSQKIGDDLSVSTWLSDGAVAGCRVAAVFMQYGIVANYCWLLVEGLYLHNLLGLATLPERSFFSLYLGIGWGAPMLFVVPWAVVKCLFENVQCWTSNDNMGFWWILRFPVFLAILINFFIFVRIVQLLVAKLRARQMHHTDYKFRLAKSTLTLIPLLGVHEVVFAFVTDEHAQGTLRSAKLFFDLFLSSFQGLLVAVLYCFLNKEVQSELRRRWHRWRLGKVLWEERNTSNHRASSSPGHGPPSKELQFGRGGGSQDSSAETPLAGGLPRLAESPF
Protocol for physchem: 2 mg of the compound was weighed, dissolved in 1 ml of phosphate buffer solutions with different concentrations (10, 20 mM) and different pH values (7.5, 8.0), and centrifuged, and supernatant was taken. The peak area was measured by HPLC (chromatographic column: Aeris widepore XB-C18 3.6 mm, 4.6×150 mm; mobile phase: A: 0.05% TFA, B: 95% acetonitrile; detection wavelength: 214 nm) and compared with a corresponding sample standard solution, and the relative concentration of the test sample solution is calculated.

`CCCCCCCCCCCCCCCC(=O)N[C@@H](CCC(=O)N[C@@H](CCC(=O)NCCCC[C@H](NC(=O)[C@H](CC(=O)O)NC(=O)[C@H](CO)NC(=O)[C@@H](NC(=O)[C@H](Cc1ccccc1)NC(=O)[C@@H](NC(=O)CNC(=O)[C@H](CCC(N)=O)NC(=O)C(C)(C)NC(=O)[C@@H](N)Cc1c[nH]cn1)[C@@H](C)O)[C@@H](C)O)C(=O)N[C@@H](CO)C(=O)N[C@@H](CCCCN)C(=O)N[C@@H](Cc1ccc(O)cc1)C(=O)N[C@@H](CC(C)C)C(=O)N[C@@H](CCC(=O)O)C(=O)N[C@@H](CCC(=O)O)C(=O)N[C@@H](CCCNC(=N)N)C(=O)N[C@@H](C)C(=O)N[C@@H](C)C(=O)N[C@@H](CCCCN)C(=O)N[C@@H](CCC(=O)O)C(=O)N[C@@H](Cc1ccccc1)C(=O)N[C@H](C(=O)N[C@@H](C)C(=O)N[C@@H](Cc1c[nH]c2ccccc12)C(=O)N[C@@H](CC(C)C)C(=O)N[C@@H](CCC(=O)O)C(=O)NCC(=O)NCC(=O)N1CCC[C@H]1C(=O)N[C@@H](CO)C(=O)N[C@@H](CO)C(=O)NCC(N)=O)[C@@H](C)CC)C(=O)O)C(=O)O` [Compound 21] (HELM PEPTIDE1{H.[Aib].Q.G.T.F.T.S.D.K.S.K.Y.L.E.E.R.A.A.K.E.F.I.A.W.L.E.G.G.P.S.S.G.[am]}|PEPTIDE2{[CCCCCCCCCCCCCCCC(=O)[*:2]].[gGlu].[gGlu]}$PEPTIDE1,PEPTIDE2,10:R3-3:R2$$$V2.0; N-terminus assumed): on GC receptor, the EC50 came to 0.175 nM. Moreover, the solubility in the data set “physchem” (pH 7.5, 10 mM phosphate buffer) is more than 2000 µg/mL; in the data set “physchem” (pH 7.5, 20 mM phosphate buffer) it was more than 2000 µg/mL.
As to `CCCCCCCCCCCCCCCC(=O)N[C@@H](CCC(=O)N[C@@H](CCC(=O)NCCCC[C@H](NC(=O)[C@H](C)NC(=O)[C@H](CCCCN)NC(=O)[C@H](CCCNC(=N)N)NC(=O)[C@H](CCC(=O)O)NC(=O)[C@H](CC(=O)O)NC(=O)[C@H](CC(C)C)NC(=O)[C@H](Cc1ccc(O)cc1)NC(=O)[C@H](CCCCN)NC(=O)[C@H](CO)NC(=O)[C@H](Cc1ccc(O)cc1)NC(=O)[C@H](CC(=O)O)NC(=O)[C@H](CO)NC(=O)[C@@H](NC(=O)[C@H](Cc1ccccc1)NC(=O)[C@@H](NC(=O)CNC(=O)[C@H](CCC(N)=O)NC(=O)C(C)(C)NC(=O)[C@@H](N)Cc1c[nH]cn1)[C@@H](C)O)[C@@H](C)O)C(=O)N[C@@H](CCC(=O)O)C(=O)N[C@@H](Cc1ccccc1)C(=O)N[C@H](C(=O)N[C@@H](CCC(=O)O)C(=O)N[C@@H](Cc1c[nH]c2ccccc12)C(=O)N[C@@H](CC(C)C)C(=O)N[C@@H](CCC(=O)O)C(=O)NCC(=O)NCC(=O)N1CCC[C@H]1C(=O)N[C@@H](CO)C(=O)N[C@@H](CO)C(=O)NCC(N)=O)C(C)C)C(=O)O)C(=O)O` [Compound 69] (HELM PEPTIDE1{H.[Aib].Q.G.T.F.T.S.D.Y.S.K.Y.L.D.E.R.K.A.K.E.F.V.E.W.L.E.G.G.P.S.S.G.[am]}|PEPTIDE2{[CCCCCCCCCCCCCCCC(=O)[*:2]].[gGlu].[gGlu]}$PEPTIDE1,PEPTIDE2,20:R3-3:R2$$$V2.0; N-terminus assumed), the EC50 on GC receptor is 0.261 nM. For the same compound, the solubility is more than 2000 µg/mL in the data set “physchem” (pH 7.5, 10 mM phosphate buffer) and more than 2000 µg/mL in the data set “physchem” (pH 7.5, 20 mM phosphate buffer).
In the case of `CC(C)C[C@H](NC(=O)[C@H](Cc1c[nH]c2ccccc12)NC(=O)[C@H](C)NC(=O)[C@@H](NC(=O)[C@H](Cc1ccccc1)NC(=O)[C@H](CCC(=O)O)NC(=O)[C@H](CCCCNC(=O)COCCOCCNC(=O)COCCOCCNC(=O)CC[C@H](NC(=O)CCCCCCCCCCCCCCCCC(=O)O)C(=O)O)NC(=O)[C@H](C)NC(=O)[C@H](CCCNC(=N)N)NC(=O)[C@H](CCCCN)NC(=O)[C@H](CCC(=O)O)NC(=O)[C@H](CCC(=O)O)NC(=O)[C@H](CC(C)C)NC(=O)[C@H](Cc1ccc(O)cc1)NC(=O)[C@H](CCCCN)NC(=O)[C@H](CO)NC(=O)[C@H](Cc1ccc(O)cc1)NC(=O)[C@H](CC(=O)O)NC(=O)[C@H](CO)NC(=O)[C@@H](NC(=O)[C@H](Cc1ccccc1)NC(=O)[C@@H](NC(=O)CNC(=O)[C@H](CCC(N)=O)NC(=O)C(C)(C)NC(=O)[C@@H](N)Cc1c[nH]cn1)[C@@H](C)O)[C@@H](C)O)C(C)C)C(=O)N[C@@H](CCC(=O)O)C(=O)NCC(=O)NCC(=O)N1CCC[C@H]1C(=O)N[C@@H](CO)C(=O)N[C@@H](CO)C(=O)NCC(N)=O` [Compound 74] (H-H[Aib]QGTFTSDYSKYLEEKRAK([AEEA-AEEA-γGlu-C18 diacid])EFVAWLEGGPSSG-NH2; N-terminus assumed), the EC50 on GC receptor is 0.725 nM.
Regarding `CC[C@H](C)[C@H](NC(=O)[C@H](Cc1ccccc1)NC(=O)[C@H](CCC(=O)O)NC(=O)[C@H](CCCCN)NC(=O)[C@H](C)NC(=O)[C@H](C)NC(=O)[C@H](CCCNC(=N)N)NC(=O)[C@H](CCC(=O)O)NC(=O)[C@H](CC(=O)O)NC(=O)[C@H](CC(C)C)NC(=O)[C@H](Cc1ccc(O)cc1)NC(=O)[C@H](CCCCN)NC(=O)[C@H](CO)NC(=O)[C@H](CCCCNC(=O)COCCOCCNC(=O)COCCOCCNC(=O)CC[C@H](NC(=O)CCCCCCCCCCCCCCCCC(=O)O)C(=O)O)NC(=O)[C@H](CC(=O)O)NC(=O)[C@H](CO)NC(=O)[C@@H](NC(=O)[C@H](Cc1ccccc1)NC(=O)[C@@H](NC(=O)CNC(=O)[C@H](CCC(N)=O)NC(=O)[C@H](CO)NC(=O)[C@@H](N)Cc1c[nH]cn1)[C@@H](C)O)[C@@H](C)O)C(=O)N[C@@H](C)C(=O)N[C@@H](Cc1c[nH]c2ccccc12)C(=O)N[C@@H](CC(C)C)C(=O)N[C@@H](CCC(=O)O)C(=O)N[C@@H](C)C(=O)NCC(=O)NCC(=O)N1CCC[C@H]1C(=O)N[C@@H](CO)C(=O)N[C@@H](CO)C(=O)NCC(N)=O` [Compound 79] (H-HSQGTFTSDK([AEEA-AEEA-γGlu-C18 diacid])SKYLDERAAKEFIAWLEAGGPSSG-NH2; N-terminus assumed), the EC50 at GC receptor was determined as 0.025 nM.
Same read-out and setting: to `CCCCCCCCCCCCCCCC(=O)N[C@@H](CCC(=O)N[C@@H](CCC(=O)NCCCC[C@H](NC(=O)[C@H](CC(=O)O)NC(=O)[C@H](CO)NC(=O)[C@@H](NC(=O)[C@H](Cc1ccccc1)NC(=O)[C@@H](NC(=O)CNC(=O)[C@H](CCC(N)=O)NC(=O)C(C)(C)NC(=O)[C@@H](N)Cc1c[nH]cn1)[C@@H](C)O)[C@@H](C)O)C(=O)N[C@@H](CO)C(=O)N[C@@H](CCCCN)C(=O)N[C@@H](Cc1ccc(O)cc1)C(=O)N[C@@H](CC(C)C)C(=O)N[C@@H](CCC(=O)O)C(=O)N[C@@H](CO)C(=O)N[C@@H](CCC(=O)O)C(=O)N[C@@H](CCCNC(=N)N)C(=O)N[C@@H](C)C(=O)N[C@@H](CCCCN)C(=O)N[C@@H](CCC(=O)O)C(=O)N[C@@H](Cc1ccccc1)C(=O)N[C@H](C(=O)N[C@@H](CCC(=O)O)C(=O)N[C@@H](Cc1c[nH]c2ccccc12)C(=O)N[C@@H](CC(C)C)C(=O)N[C@H](C(=O)N[C@@H](CCCCN)C(=O)N[C@@H](CCC(=O)O)C(=O)NCC(=O)NCC(=O)N1CCC[C@H]1C(=O)N[C@@H](CO)C(=O)N[C@@H](CO)C(=O)NCC(N)=O)C(C)C)C(C)C)C(=O)O)C(=O)O` [Compound 19] (HELM PEPTIDE1{H.[Aib].Q.G.T.F.T.S.D.K.S.K.Y.L.E.S.E.R.A.K.E.F.V.E.W.L.V.K.E.G.G.P.S.S.G.[am]}|PEPTIDE2{[CCCCCCCCCCCCCCCC(=O)[*:2]].[gGlu].[gGlu]}$PEPTIDE1,PEPTIDE2,10:R3-3:R2$$$V2.0; N-terminus assumed) belongs 6.25 nM.
For the compound `CC(C)C[C@H](NC(=O)[C@H](Cc1c[nH]c2ccccc12)NC(=O)[C@H](C)NC(=O)[C@@H](NC(=O)[C@H](Cc1ccccc1)NC(=O)[C@H](CCC(=O)O)NC(=O)[C@H](CCCCN)NC(=O)[C@H](C)NC(=O)[C@H](C)NC(=O)[C@H](CCCNC(=N)N)NC(=O)[C@H](CCC(=O)O)NC(=O)[C@H](CCC(=O)O)NC(=O)[C@H](CC(C)C)NC(=O)[C@H](Cc1ccc(O)cc1)NC(=O)[C@H](CCCCN)NC(=O)[C@H](CO)NC(=O)[C@H](CCCCNC(=O)COCCOCCNC(=O)COCCOCCNC(=O)CC[C@H](NC(=O)CCCCCCCCCCCCCCCCC(=O)O)C(=O)O)NC(=O)[C@H](CC(=O)O)NC(=O)[C@H](CO)NC(=O)[C@@H](NC(=O)[C@H](Cc1ccccc1)NC(=O)[C@@H](NC(=O)CNC(=O)[C@H](CCC(N)=O)NC(=O)C(C)(C)NC(=O)[C@@H](N)Cc1c[nH]cn1)[C@@H](C)O)[C@@H](C)O)C(C)C)C(=O)N[C@@H](CCCCN)C(=O)N[C@@H](CCC(=O)O)C(=O)NCC(=O)NCC(=O)N1CCC[C@H]1C(=O)N[C@@H](CO)C(=O)N[C@@H](CO)C(=O)NCC(N)=O` [Compound 17] (H-H[Aib]QGTFTSDK([AEEA-AEEA-γGlu-C18 diacid])SKYLEERAAKEFVAWLKEGGPSSG-NH2; N-terminus assumed), the EC50 at GC receptor turned out to be 0.486 nM.
Still for that read-out and setting: for `CCCCCCCCCCCCCCCC(=O)N[C@@H](CCC(=O)N[C@@H](CCC(=O)NCCCC[C@H](NC(=O)[C@H](C)NC(=O)[C@H](CCCNC(=N)N)NC(=O)[C@H](CCCCN)NC(=O)[C@H](CCC(=O)O)NC(=O)[C@H](CCC(=O)O)NC(=O)[C@H](CC(C)C)NC(=O)[C@H](Cc1ccc(O)cc1)NC(=O)[C@H](CCCCN)NC(=O)[C@H](CO)NC(=O)[C@H](Cc1ccc(O)cc1)NC(=O)[C@H](CC(=O)O)NC(=O)[C@H](CO)NC(=O)[C@@H](NC(=O)[C@H](Cc1ccccc1)NC(=O)[C@@H](NC(=O)CNC(=O)[C@H](CCC(N)=O)NC(=O)C(C)(C)NC(=O)[C@@H](N)Cc1c[nH]cn1)[C@@H](C)O)[C@@H](C)O)C(=O)N[C@@H](CCC(=O)O)C(=O)N[C@@H](Cc1ccccc1)C(=O)N[C@H](C(=O)N[C@@H](CCC(=O)O)C(=O)N[C@@H](Cc1c[nH]c2ccccc12)C(=O)N[C@@H](CC(C)C)C(=O)N[C@@H](CCC(=O)O)C(=O)NCC(=O)NCC(=O)N1CCC[C@H]1C(=O)N[C@@H](CO)C(=O)N[C@@H](CO)C(=O)NCC(N)=O)C(C)C)C(=O)O)C(=O)O` [Compound 76] (HELM PEPTIDE1{H.[Aib].Q.G.T.F.T.S.D.Y.S.K.Y.L.E.E.K.R.A.K.E.F.V.E.W.L.E.G.G.P.S.S.G.[am]}|PEPTIDE2{[CCCCCCCCCCCCCCCC(=O)[*:2]].[gGlu].[gGlu]}$PEPTIDE1,PEPTIDE2,20:R3-3:R2$$$V2.0; N-terminus assumed) the value was 0.191 nM.

For the origin of these results see patent US12257287B2, “Glucagon-derived peptide and use thereof” (Tianjin Institute of Pharmaceutical Research Co., Ltd., priority 2018, dated 2025).
